Assay results reported in patent US10512271B2, “Method for preventing or treating microbial growth on a manufactured product” (Stellenbosch University, priority 2014, dated 2019).
Square brackets hold non-standard residues; d marks the D form. Peptide text beside a SMILES is read from it. ξ: configuration not given here. Orn = NCCC[C@H](N)C(=O)O; ξP = O=C(O)C1CCCN1

Legend:
red blood cells = experiment: Haemolytic assay on treated filter disks; type: cell-based; details: peptide in solution
Description: Fresh blood from anonymous donors (obtained from the Western Cape Blood transfusion Service, South Africa) was transferred to a sterile Falcon® tube, filled with sterile phosphate buffered saline (PBS: 4.0% (w/v) NaCl, 0.1% (w/v) KC, 0.72% (w/v) Na2HPO4, 0.1% (w/v) KH2PO4, pH 7.2, 5× concentrated stock solution) and centrifuged at 1200×g for 3 minutes. The supernatant was removed and the process repeated. The supernatant was removed once again and remaining blood cells were used for the assays. A clear 96-well microplate was used for this assay. Three disks of each of the matrixes (treated and untreated) were placed into the wells and 4 wells received 10 μL of gramicidin S as positive haemolytic control (1.0 mg/mL). Blood (100 μL at 2% hematocrit) was pipetted into each of the wells, after which the plates were sealed and incubated at 37° C. for 2 hours. […] The absorbance was measured at 595 nm. Percentage haemolysis was calculated by adapting an equation used for dose response assays (Rautenbach, Gerstner, Vlok, Kulenkamff and Westerhoff, 2005, Anal. Biochem. 350:81-90):
A standard curve of tyrocidine doubling dilution (dose response), starting at 20 μg/mL, was used to determine the amount of Tres leading to lysis. Lysis was determined from the linear part of the dose-response curve using the equation: (% haemolysis−2.38)/5.74=[Trc] μg/mL.

[1] = Wettability of treated filters (water drop size and time to absorption); type: physicochemical
Description: The wettability of untreated and GS- and Trc-treated filters were determined to ascertain the effect the peptides have on the hydrophobicity of the filters. Water containing blue food colouring (50 μL) was pipetted onto untreated and treated filters and the filters were monitored for the drop size and time to complete absorption.
The wettability, an indicator of hydrophilic/hydrophobic character, could possibly be altered by the adsorption of peptide, and this change in character would be an indication of the orientation in which in the peptide adsorbed to the various filters. The wettability of untreated and treated filters was determined (Table 3) and the untreated filters were rated in terms of hydrophobicity based on the time it took for a water droplet to completely absorb into the filter. […] Trc treatment made CA much more hydrophilic, while GS also lead to an increase in hydrophilicity, indicating the exposure of the polar amino acids to the surface. Trc made the HAWP filters more hydrophobic, whereas the gramicidin S made the filter more hydrophilic.

[2] = Peptide adsorbed to filters, change in absorbance (A230) of incubation solution
M. luteus = experiment: Cell viability (vitality) assay, low nutrient environment, high cell count; type: cell-based, Micrococcus luteus
Description: Treated and untreated matrixes (filters, membrane and films) were punched into 5 mm disks and triplicate disks were transferred to black […] microplates. A mid-log phase M. luteus culture was diluted with LB media to A620 of 0.20 (1.3×10^7 CFU/mL). Each well received […] of the diluted culture ([…]) on top of the 5 mm disk. The plate was incubated at 37° C. for one hour after which 90 μL phosphate-buffered saline (PBS) and 10 μL CellTiter-Blue® Reagent was added to each well. The plate was again incubated for 2 hours at 37° C. After the […] incubation in the low nutrient environment, the fluorescence was determined at an excitation wavelength of 530 nm and emission wavelength of 590 nm. The fluorescence reading was taken with a Varioskan™ Multimode reader from Thermo Scientific™ controlled by Skanit Software 2.4.1 from Thermo Electron. Each plate was shaken for 5 seconds before measurements were taken at 25° C.
Cell viability was calculated using the equation: […]
Different filters, surfaces and nanofibers, treated with Trc extract or GS, were assessed for the more direct short-term killing of M. luteus (sterilisation) using a low nutrient environment, high cell count and the Alamar Blue vitality assay to assess bacterial metabolism. […] This could be due to the limited spreading of the 5 μL culture on the filter, limiting the contact of the bacteria with the rest of the Trc-coated filter, and thus this assay could have underestimated the overall filter activity.

Gram-negative organisms = experiment: Activity of treated CL filters against Gram-negative organisms; type: cell-based
[3] = system: Micrococcus luteus NCTC 8340; experiment: Antibacterial CFU growth assay, high nutrient environment; type: cell-based
Description: Micrococcus luteus NCTC 8340 was cultured from a freezer stock on Luria Bertani plates (LB: 1% (w/v) NaCl (Merck), 1% (w/v) tryptone (Merck), 0.5% (w/v) yeast extract (Merck), 1.5% (w/v) agar (BioLab) in analytical grade water) and incubated at 37° C. for a period of 48 hours. A colony inoculate in 20 mL of sterile LB broth was incubated at 37° C. until an A620=0.6 was reached. Peptide-treated matrix and a control untreated matrix were transferred to a LB agar plate (high nutrient environment). The M. luteus culture was diluted to A620 of 0.2, further diluted (2000-10000 fold) and transferred to both treated and untreated filters on the LB plate. Plates were incubated for 48 hours at 37° C., after which the matrixes were inspected for the number of colony forming units (CFU).

[4] = Polycarbonate (PC, 0.45 μm pores)
[5] = Polyvinylidene difluoride (GVLP, 0.22 μm pores)
[6] = Polyvinylidene difluoride (HVLP, 0.45 μm pores)

With `CC(C)C[C@@H]1NC(=O)[C@H](CCCN)NC(=O)[C@H](C(C)C)NC(=O)C2CCCN2C(=O)[C@@H](Cc2ccccc2)NC(=O)[C@H](CC(C)C)NC(=O)[C@H](CCCN)NC(=O)[C@H](C(C)C)NC(=O)C2CCCN2C(=O)[C@@H](Cc2ccccc2)NC1=O` (some centres unmarked) [GS, Cyclo-(VOLfPVOLfP)] (cyclo(L[dF][ξP]V[Orn]L[dF][ξP]V[Orn])) the “concentration at which lysis of red blood cells starts” value (red blood cells) was greater than 10000 ng/mL, the “Drop Diameter” value ([1]; Cellulose (CL, No 1)) was greater than 1 cm and the Time until absorbed ([1]; Cellulose (CL, No 1)) was less than 0.167 min. For the same molecule, the “induced change in hydrophobicity” value ([1]; Cellulose (CL, No 1)) was “no change”, the “Drop Diameter” value ([1]; Cellulose Acetate (CA)) was 0.85 cm and the Time until absorbed ([1]; Cellulose Acetate (CA)) was 5.01 min. The “induced change in hydrophobicity” value ([1]; Cellulose Acetate (CA)) was “decrease”, the “Drop Diameter” value ([1]; GSWP, 0.22 μm pores) was 0.81 cm and the Time until absorbed ([1]; GSWP, 0.22 μm pores) was 3.55 min. For the same molecule, the “induced change in hydrophobicity” value ([1]; GSWP, 0.22 μm pores) was “increase”, the “Drop Diameter” value ([1]; HAWP, 0.45 μm pores) was 0.96 cm and the “induced change in hydrophobicity” value ([1]; HAWP, 0.45 μm pores) was “slight”. For the same molecule, the Time until absorbed ([1]; HAWP, 0.45 μm pores, 50 μL water drop) was 2.20 min, the “Drop Diameter” value ([1]; High density cellulose (HDC)) was 0.94 cm and the Time until absorbed ([1]; High density cellulose (HDC)) was greater than 30 min. The “induced change in hydrophobicity” value ([1]; High density cellulose (HDC)) was “slight”, the “Drop Diameter” value [1, 4] was 0.73 cm and the Time until absorbed [1, 4] was greater than 30 min. For the same molecule, the “induced change in hydrophobicity” value [1, 4] was “no change”, the “Drop Diameter” value [1, 5] was 1.00 cm and the Time until absorbed [1, 5] was 17.25 min. For the same molecule, the “induced change in hydrophobicity” value [1, 5] was “increase”, the “Drop Diameter” value [1, 6] was 0.72 cm and the Time until absorbed [1, 6] was 9.20 min. For the same molecule, the “induced change in hydrophobicity” value [1, 6] was “increase”, the “peptide adsorbed, Absorbance (A230)” value ([2]; GVHP (0.22 μm) filter) was 5.3±1.1 μg/cm^2 and the “peptide adsorbed, Absorbance (A230)” value ([2]; HVLP (0.45 μm) filter) was 2.8±0.6 μg/cm^2. For the same molecule, the “peptide adsorbed, Absorbance (A230)” value ([2]; Polycarbonate filter) was 1.2±2.2 μg/cm^2, the “short-term killing of M. luteus (sterilisation)” value (“short-term killing of M. luteus” below) (M. luteus; HDC and CL filters, FIG. 3A) was “Good protection” and the “short-term killing of M. luteus” value (M. luteus; HVLP filter, FIG. 3A) was “good protection”. For the same molecule, the “short-term killing of M. luteus” value (M. luteus; all the other filters except PC, compared with growth assay) was “improved activity”, the “overt activity against Gram-negative organisms” value (Gram-negative organisms) was “not demonstrated” and the “protection of treated filters against overt colonisation by M. luteus” value ([3]; 48 hour growth assay, low cell count, high nutrient environment, summary of Table 4) was “only protected CL, HDC and HVLP against overt colonisation”. For the same molecule, the “M. luteus, detected CFU/cm^2 after 48 h in nutrient rich environment” value (shortened to “M. luteus, detected CFU/cm^2 after 48 h”) ([3]; Cellulose (CL)) was 0 CFU/cm^2, the “M. luteus, detected CFU/cm^2 after 48 h” value ([3]; Cellulose Acetate (CA)) was 3 ± 1 CFU/cm^2 and the “M. luteus, detected CFU/cm^2 after 48 h” value ([3]; High density cellulose (HDC)) was 0 CFU/cm^2. The “M. luteus, detected CFU/cm^2 after 48 h” value ([3]; Mixed nitrocellulose/cellulose acetate esters (GSWP 0.22 μm)) was 3 ± 1 CFU/cm^2, the “M. luteus, detected CFU/cm^2 after 48 h” value ([3]; Mixed nitrocellulose/cellulose acetate esters (HAWP, 0.45 μm)) was 4 ± 1 CFU/cm^2 and the “M. luteus, detected CFU/cm^2 after 48 h” value ([3]; Polycarbonate (PC, 0.45 um)) was 4 ± 1 CFU/cm^2. For the same molecule, the “M. luteus, detected CFU/cm^2 after 48 h” value ([3]; Polyvinylidene difluoride (GVHP, 0.22 μm)) was 3 ± 1 CFU/cm^2 and the “M. luteus, detected CFU/cm^2 after 48 h” value ([3]; Polyvinylidene difluoride (HVLP, 0.45 μm)) was 0 CFU/cm^2.
